Data as given in ChEMBL document CHEMBL4024727, “Synthesis and antimycobacterial screening of new thiazolyl-oxazole derivatives” (Eur J Med Chem, 2017).

System: Bacillus subtilis
Assay: Growth inhibition of Bacillus subtilis NCIM 2162 at 1 ug/ml measured after 12 hrs relative to control
Format: functional
Conditions: NCIM 2162, 12 h, read-out: GI

| SMILES | inhibition of growth at 1 µg/mL [%] |
| --- | --- |
| Cc1nc(-c2ccc(F)cc2)oc1-c1csc(-c2ccc(F)cc2)n1 | 40.5 |
| Cc1nc(-c2ccc(F)cc2)oc1-c1csc(Cc2ccc(Cl)cc2)n1 | 9.95 |

System: Staphylococcus aureus
Assay: Growth inhibition of Staphylococcus aureus NCIM 2602 at 30 ug/ml measured after 12 hrs relative to control
Format: functional
Conditions: NCIM 2602, 12 h, read-out: GI

| SMILES | inhibition of growth at 30 µg/mL [%] |
| --- | --- |
| Cc1nc(-c2ccc(F)cc2)oc1-c1csc(-c2ccc(F)cc2)n1 | 67 |
| Cc1nc(-c2ccc(F)cc2)oc1-c1csc(Cc2ccc(Cl)cc2)n1 | 21.1 |

System: Escherichia coli
Assay: Growth inhibition of Escherichia coli NCIM 2576 at 10 ug/ml measured after 8 hrs relative to control
Format: functional
Conditions: NCIM 2576, 8 h, read-out: GI

| SMILES | inhibition of growth at 10 µg/mL [%] |
| --- | --- |
| Cc1nc(-c2ccc(F)cc2)oc1-c1csc(-c2ccc(F)cc2)n1 | 59 |
| Cc1nc(-c2ccc(F)cc2)oc1-c1csc(Cc2ccc(Cl)cc2)n1 | 16.1 |

System: Mycobacterium tuberculosis
Assay: Antitubercular activity against Mycobacterium bovis BCG ATCC 35743 dormant stage by nitrate reductase based two-fold dilution assay
Format: functional
Conditions: BCG str. ATCC 35743

| SMILES | IC50 [µM] | MIC90 [µM] |
| --- | --- | --- |
| Cc1nc(-c2ccc(F)cc2)oc1-c1csc(-c2ccc(F)cc2)n1 | > 100 | > 100 |
| Cc1nc(-c2ccc(F)cc2)oc1-c1csc(Cc2ccc(Cl)cc2)n1 | > 100 | > 100 |

System: Escherichia coli
Assay: Growth inhibition of Escherichia coli NCIM 2576 at 1 ug/ml measured after 8 hrs relative to control
Format: functional
Conditions: NCIM 2576, 8 h, read-out: GI

| SMILES | inhibition of growth at 1 µg/mL [%] |
| --- | --- |
| Cc1nc(-c2ccc(F)cc2)oc1-c1csc(-c2ccc(F)cc2)n1 | 43.8 |
| Cc1nc(-c2ccc(F)cc2)oc1-c1csc(Cc2ccc(Cl)cc2)n1 | 7.55 |

System: Mycobacterium tuberculosis
Assay: Growth inhibition of Mycobacterium bovis BCG ATCC 35743 at 10 ug/ml by nitrate reductase based two-fold dilution assay relative to control
Format: functional
Conditions: BCG str. ATCC 35743, read-out: GI

| SMILES | inhibition of growth at 10 µg/mL [%] |
| --- | --- |
| Cc1nc(-c2ccc(F)cc2)oc1-c1csc(-c2ccc(F)cc2)n1 | 6 |
| Cc1nc(-c2ccc(F)cc2)oc1-c1csc(Cc2ccc(Cl)cc2)n1 | 32 |

System: Mycobacterium tuberculosis
Assay: Antitubercular activity against Mycobacterium tuberculosis H37Ra ATCC 25177 dormant stage by XTT dye based two-fold dilution method
Format: functional
Conditions: not given

| SMILES | IC50 [µM] | MIC90 [µM] |
| --- | --- | --- |
| Cc1nc(-c2ccc(F)cc2)oc1-c1csc(-c2ccc(F)cc2)n1 | > 100 | > 100 |
| Cc1nc(-c2ccc(F)cc2)oc1-c1csc(Cc2ccc(Cl)cc2)n1 | > 100 | > 100 |

System: Escherichia coli
Assay: Growth inhibition of Escherichia coli NCIM 2576 at 30 ug/ml measured after 8 hrs relative to control
Format: functional
Conditions: NCIM 2576, 8 h, read-out: GI

| SMILES | inhibition of growth at 30 µg/mL [%] |
| --- | --- |
| Cc1nc(-c2ccc(F)cc2)oc1-c1csc(-c2ccc(F)cc2)n1 | 62.5 |
| Cc1nc(-c2ccc(F)cc2)oc1-c1csc(Cc2ccc(Cl)cc2)n1 | 21 |

System: Mycobacterium tuberculosis
Assay: Growth inhibition of Mycobacterium bovis BCG ATCC 35743 at 30 ug/ml by nitrate reductase based two-fold dilution assay relative to control
Format: functional
Conditions: BCG str. ATCC 35743, read-out: GI

| SMILES | inhibition of growth at 30 µg/mL [%] |
| --- | --- |
| Cc1nc(-c2ccc(F)cc2)oc1-c1csc(-c2ccc(F)cc2)n1 | 20 |
| Cc1nc(-c2ccc(F)cc2)oc1-c1csc(Cc2ccc(Cl)cc2)n1 | 42 |

System: Mycobacterium tuberculosis
Assay: Growth inhibition of Mycobacterium bovis BCG ATCC 35743 at 1 ug/ml by nitrate reductase based two-fold dilution assay relative to control
Format: functional
Conditions: BCG str. ATCC 35743, read-out: GI

| SMILES | inhibition of growth at 1 µg/mL [%] |
| --- | --- |
| Cc1nc(-c2ccc(F)cc2)oc1-c1csc(-c2ccc(F)cc2)n1 | 3 |
| Cc1nc(-c2ccc(F)cc2)oc1-c1csc(Cc2ccc(Cl)cc2)n1 | 24 |

System: Bacillus subtilis
Assay: Growth inhibition of Bacillus subtilis NCIM 2162 at 30 ug/ml measured after 12 hrs relative to control
Format: functional
Conditions: NCIM 2162, 12 h, read-out: GI

| SMILES | inhibition of growth at 30 µg/mL [%] |
| --- | --- |
| Cc1nc(-c2ccc(F)cc2)oc1-c1csc(-c2ccc(F)cc2)n1 | 63.8 |
| Cc1nc(-c2ccc(F)cc2)oc1-c1csc(Cc2ccc(Cl)cc2)n1 | 27.6 |

System: Bacillus subtilis
Assay: Antibacterial activity against Bacillus subtilis NCIM 2162 measured after 12 hrs
Format: functional
Conditions: NCIM 2162, 12 h

| SMILES | MIC [µM] |
| --- | --- |
| Cc1nc(-c2ccc(F)cc2)oc1-c1csc(-c2ccc(F)cc2)n1 | > 100 |
| Cc1nc(-c2ccc(F)cc2)oc1-c1csc(Cc2ccc(Cl)cc2)n1 | > 100 |

System: Staphylococcus aureus
Assay: Growth inhibition of Staphylococcus aureus NCIM 2602 at 10 ug/ml measured after 12 hrs relative to control
Format: functional
Conditions: NCIM 2602, 12 h, read-out: GI

| SMILES | inhibition of growth at 10 µg/mL [%] |
| --- | --- |
| Cc1nc(-c2ccc(F)cc2)oc1-c1csc(-c2ccc(F)cc2)n1 | 51.4 |
| Cc1nc(-c2ccc(F)cc2)oc1-c1csc(Cc2ccc(Cl)cc2)n1 | 14.1 |

System: Escherichia coli
Assay: Antibacterial activity against Escherichia coli NCIM 2576 measured after 8 hrs
Format: functional
Conditions: NCIM 2576, 8 h

| SMILES | MIC [µM] |
| --- | --- |
| Cc1nc(-c2ccc(F)cc2)oc1-c1csc(-c2ccc(F)cc2)n1 | > 100 |
| Cc1nc(-c2ccc(F)cc2)oc1-c1csc(Cc2ccc(Cl)cc2)n1 | > 100 |

System: Staphylococcus aureus
Assay: Antibacterial activity against Staphylococcus aureus NCIM 2602 measured after 12 hrs
Format: functional
Conditions: NCIM 2602, 12 h

| SMILES | MIC [µM] |
| --- | --- |
| Cc1nc(-c2ccc(F)cc2)oc1-c1csc(-c2ccc(F)cc2)n1 | > 100 |
| Cc1nc(-c2ccc(F)cc2)oc1-c1csc(Cc2ccc(Cl)cc2)n1 | > 100 |

System: Mycobacterium tuberculosis
Assay: Growth inhibition of Mycobacterium tuberculosis H37Ra ATCC 25177 at 3 ug/ml by XTT dye based two-fold dilution method relative to control
Format: functional
Conditions: read-out: GI

| SMILES | inhibition of growth at 3 µg/mL [%] |
| --- | --- |
| Cc1nc(-c2ccc(F)cc2)oc1-c1csc(Cc2ccc(Cl)cc2)n1 | 9 |

System: Mycobacterium tuberculosis
Assay: Growth inhibition of Mycobacterium tuberculosis H37Ra ATCC 25177 at 30 ug/ml by XTT dye based two-fold dilution method relative to control
Format: functional
Conditions: read-out: GI

| SMILES | inhibition of growth at 30 µg/mL [%] |
| --- | --- |
| Cc1nc(-c2ccc(F)cc2)oc1-c1csc(-c2ccc(F)cc2)n1 | 6 |
| Cc1nc(-c2ccc(F)cc2)oc1-c1csc(Cc2ccc(Cl)cc2)n1 | 39 |

System: Staphylococcus aureus
Assay: Growth inhibition of Staphylococcus aureus NCIM 2602 at 1 ug/ml measured after 12 hrs relative to control
Format: functional
Conditions: NCIM 2602, 12 h, read-out: GI

| SMILES | inhibition of growth at 1 µg/mL [%] |
| --- | --- |
| Cc1nc(-c2ccc(F)cc2)oc1-c1csc(-c2ccc(F)cc2)n1 | 43 |
| Cc1nc(-c2ccc(F)cc2)oc1-c1csc(Cc2ccc(Cl)cc2)n1 | 5.76 |

System: Mycobacterium tuberculosis
Assay: Growth inhibition of Mycobacterium tuberculosis H37Ra ATCC 25177 at 10 ug/ml by XTT dye based two-fold dilution method relative to control
Format: functional
Conditions: read-out: GI

| SMILES | inhibition of growth at 10 µg/mL [%] |
| --- | --- |
| Cc1nc(-c2ccc(F)cc2)oc1-c1csc(-c2ccc(F)cc2)n1 | 5 |
| Cc1nc(-c2ccc(F)cc2)oc1-c1csc(Cc2ccc(Cl)cc2)n1 | 25 |

System: Pseudomonas fluorescens
Assay: Antibacterial activity against Pseudomonas fluorescens NCIM 2059 measured after 8 hrs
Format: functional
Conditions: NCIM 2059, 8 h

| SMILES | MIC [µM] |
| --- | --- |
| Cc1nc(-c2ccc(F)cc2)oc1-c1csc(-c2ccc(F)cc2)n1 | > 100 |
| Cc1nc(-c2ccc(F)cc2)oc1-c1csc(Cc2ccc(Cl)cc2)n1 | > 100 |

System: Bacillus subtilis
Assay: Growth inhibition of Bacillus subtilis NCIM 2162 at 10 ug/ml measured after 12 hrs relative to control
Format: functional
Conditions: NCIM 2162, 12 h, read-out: GI

| SMILES | inhibition of growth at 10 µg/mL [%] |
| --- | --- |
| Cc1nc(-c2ccc(F)cc2)oc1-c1csc(-c2ccc(F)cc2)n1 | 55.3 |
| Cc1nc(-c2ccc(F)cc2)oc1-c1csc(Cc2ccc(Cl)cc2)n1 | 13.9 |

System: Pseudomonas fluorescens
Assay: Growth inhibition of Pseudomonas fluorescens NCIM 2059 at 10 ug/ml measured after 8 hrs relative to control
Format: functional
Conditions: NCIM 2059, 8 h, read-out: GI

| SMILES | inhibition of growth at 10 µg/mL [%] |
| --- | --- |
| Cc1nc(-c2ccc(F)cc2)oc1-c1csc(-c2ccc(F)cc2)n1 | 55.3 |
| Cc1nc(-c2ccc(F)cc2)oc1-c1csc(Cc2ccc(Cl)cc2)n1 | 20.1 |

System: Pseudomonas fluorescens
Assay: Growth inhibition of Pseudomonas fluorescens NCIM 2059 at 30 ug/ml measured after 8 hrs relative to control
Format: functional
Conditions: NCIM 2059, 8 h, read-out: GI

| SMILES | inhibition of growth at 30 µg/mL [%] |
| --- | --- |
| Cc1nc(-c2ccc(F)cc2)oc1-c1csc(-c2ccc(F)cc2)n1 | 63.4 |
| Cc1nc(-c2ccc(F)cc2)oc1-c1csc(Cc2ccc(Cl)cc2)n1 | 20.9 |

System: Pseudomonas fluorescens
Assay: Growth inhibition of Pseudomonas fluorescens NCIM 2059 at 1 ug/ml measured after 8 hrs relative to control
Format: functional
Conditions: NCIM 2059, 8 h, read-out: GI

| SMILES | inhibition of growth at 1 µg/mL [%] |
| --- | --- |
| Cc1nc(-c2ccc(F)cc2)oc1-c1csc(-c2ccc(F)cc2)n1 | 40.6 |
| Cc1nc(-c2ccc(F)cc2)oc1-c1csc(Cc2ccc(Cl)cc2)n1 | 4.37 |
